In patent publication US7781402B2, “Methods and implantable devices for treating supraventricular arrhythmias” (Closed Loop Therapies Ltd., priority 2004, dated 2010):

Assays:
[1] = test system: recent-onset atrial fibrillation; settings: phase 3 trial; cited from earlier work
[2] = test system: stroke; settings: people with atrial fibrillation; cited from earlier work
[3] = test system: atrial fibrillation; experiment: Termination of induced atrial fibrillation in anesthetized Wistar rats (ECG); assay type: in vivo
[4] = test system: atrial tachycardia; experiment: Termination of induced atrial tachycardia in anesthetized Wistar rats (ECG); assay type: in vivo
Procedure: The effect of rapidly hydrolysable cholinergic receptor agonists (RHCA) on supraventricular arrhythmia was tested in anesthetized Wistar rats, as follows.
(§1) Induction of atrial tachycardia, atrial fibrillation and atrial flutter in rats—Wistar rats of either sex weighing 450-550 g were used in this study. Rats were anesthetized and atrial tachycardia, atrial fibrillation, or atrial flutter were induced by cardiac stimulation using a programmable stimulator with an isolated constant-current source. Stimuli of rectangular pulses of 2 milliseconds (ms) duration at three times diastolic threshold were delivered via transesophageal bipolar catheter positioned optimally to stimulate the atria. Double and triple extra stimulation techniques or a minimal coupling interval of 10 ms were performed in an attempt to induce atrial arrhythmias. Atrial burst pacing at intervals of 40 to 80 ms was also performed to induce atrial arrhythmias.
(§2) Electrocardiogram (ECG) recording—The surface six-lead ECG was continuously recorded from subcutaneous 25-gauge electrodes in each limb of the animal. The ECG channels were amplified (0.1-0.5 mV/cm) and filtered between 0.5-250 Hz. The ECG variables were calculated according to standard criteria.
(§3) Rapidly hydrolysable cholinergic receptor agonists (RHCA)—The RHCA were injected either through the tail vein or directly into the right ventricular cavity of rats with induced atrial fibrillation, atrial flutter or atrial tachycardia. The RHCA used in the present study was acetylcholine (ACh). […]

[5] = test system: atrial flutter; experiment: Termination of induced atrial flutter in anesthetized Wistar rats (ECG); assay type: in vivo; settings: nine rats, 0.02-0.3 mg/kg via tail vein
Description: as §1, §2, §3

[6] = test system: atrial fibrillation; experiment: Termination of induced atrial fibrillation in anesthetized Wistar rats (ECG); assay type: in vivo; remark: listed apart in the source
Description: as §1, §2
Rapidly hydrolysable cholinergic receptor agonists (RHCA)—The RHCA were injected either through the tail vein or directly into the right ventricular cavity of rats with induced atrial fibrillation, atrial flutter or atrial tachycardia. The RHCA used in the present study was acetylcholine (ACh). ACh was dissolved at a concentration of either 1 mg/ml or 0.1 mg/ml in 0.9% NaCl solution and was injected either to the tail vein at a dosage of 0.2 mg/kg body weight, or to the right ventricle at a dosage of 0.02 mg/kg body weight.
Atrial fibrillation was elicited in rats as described in Example 1, hereinabove.

[7] = test system: arrhythmia induction; settings: wild type and M1 cholinergic receptor knockout mice; cited from earlier work
[8] = bolus injection 0.04-0.2 mg/kg body weight
[9] = 0.02 mg/kg into right ventricular cavity, FIG. 2b
[10] = 0.2 mg/kg via tail vein, FIG. 2a
[11] = bolus injection into the right ventricular cavity
[12] = bolus injection into the tail vein
[13] = 0.2 mg/kg through the tail vein, FIG. 5
[14] = RHCA into right ventricular cavity, n=10, FIG. 4

COc1ccc(CCO[C@@H]2CCCC[C@H]2N2CC[C@@H](O)C2)cc1OC [RSD1235]
conversion of recent-onset atrial fibrillation to sinus rhythm [1]: demonstrated its effectiveness to convert recent-onset atrial fibrillation to sinus rhythm

CC(=O)CC(c1ccccc1)c1c(O)c2ccccc2oc1=O (stereo not shown) [Coumadin, warfarin]
reduction of the risk of stroke [2]: 60-80%

CC(=O)OCC[N+](C)(C)C [acetylcholine]
time until transient sinus bradycardia (and AV block) disappeared ([3]; 0.04 mg/kg into right ventricular cavity): ≤ 20 s
additional time to restore normal rhythm [3, 8]: 1 to 5 s
time of complete AV node conduction recovery following RHCA administration ([4]; 0.02 mg/kg into right ventricular cavity): about 6 seconds
period of cardiac arrest after termination [4, 9]: 1.25 s
time until AV conduction completely recovered [4, 9]: about 4.5 sec
time to termination of atrial tachycardia ([4]; 0.02 mg/kg into right ventricular cavity, example rat (FIG. 2b)): 0.5 s
duration of high degree AV block ([4]; 0.02 mg/kg into right ventricular cavity, following acetylcholine hydrolysis): 2.5 s
lag to termination of atrial tachycardia ([4]; 0.2 mg/kg body weight via tail vein, representative rat (FIG. 2a)): 2.6 s
time for sinus rhythm to reach its pre-arrhythmic value ([4]; 0.2 mg/kg via tail vein): about 1 minute
P-P interval immediately following RHCA administration [4, 10]: 650 ± 3 ms
R-R interval immediately following RHCA administration [4, 10]: 652 ± 3 ms
time to termination of atrial tachycardia ([4]; 0.02 or 0.2 mg/kg via right ventricular cavity or tail vein, respectively): 0.5 to 15 s
additional time to restore normal rhythm [4, 11]: 1 to 5 s
time to termination of atrial tachycardia [4, 11]: 0.5 to 10.5 s
additional time to restore normal rhythm [4, 12]: 1 to 5 s
time to termination of atrial tachycardia [4, 12]: 2 to 15 s
time until cardiac arrest, escape rhythm, AV block and sinus bradycardia all disappear ([4]; injection into right ventricular cavity): ≤ 15 s
time to conversion to sinus rhythm ([4]; ten rats, 0.02-0.2 mg/kg via tail vein): 2 to 5 s
time to conversion to sinus rhythm [5]: 2 to 5 s
additional time until SA and AV nodes / AV conduction recovered [6, 13]: 1.5 s
time to termination of atrial fibrillation [6, 13]: ≤ 9.8 s
atrial fibrillation cases terminated [6, 14]: 100%
time within which atrial fibrillation cases are terminated [6, 14]: ≤ 8.4 ± 1.9 s
time to termination of atrial fibrillation [6, 8]: 0.5 to 15 s
additional time to restore normal rhythm [6, 11]: 1 to 5 s
time to termination of atrial fibrillation [6, 11]: 0.5 to 10.5 s
additional time to restore normal rhythm [6, 12]: 1 to 5 s
time to termination of atrial fibrillation [6, 12]: 2 to 15 s
effect of intravenous injection on heart rhythm [7]: caused atrioventricular conduction block and induced atrial fibrillation or flutter
